Measured values taken from paper PMC8016998, “Identification of potential therapeutic antimicrobial peptides against Acinetobacter baumannii in a mouse model of pneumonia” (Scientific Reports, 2021).
Like-named read-outs stand apart in the source and are kept apart here. No end group written: not given here.

Tests used:
[1] = system: Acinetobacter baumannii 17,978; assay type: cell-based;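 also: CLSI broth microdilution in 96-well polypropylene plates, MBC taken as lowest concentration giving no growth when clear wells were subcultured on LB agar for 24 h at 37 °C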
Description: (§2) MBC were determined by extending the MIC procedure in sterilized 96-well polypropylene microtiter plates according to the broth microdilution guidelines of the Clinical and Laboratory Standards Institute with some modification[47]. […] In addition, 10 µL was drawn from each well with no visible turbidity onto LB agar plates and incubated for 24 h at 37 °C. The lowest concentration showing no visible growth on agar subculture was used as the MBC value. All experiments were performed in triplicate.

[2] = system: MDRAB clinical strain U95; assay type: cell-based, Acinetobacter baumannii
Description: as §2

[3] = system: MDRAB clinical strain Y92; assay type: cell-based, Acinetobacter baumannii
[4] = system: MDRAB clinical strain AL87; assay type: cell-based, Acinetobacter baumannii
Description: as §2

[5] = system: MDRAB clinical strain AF11; assay type: cell-based, Acinetobacter baumannii
[6] = system: MDRAB clinical strain AO80; assay type: cell-based, Acinetobacter baumannii
MDRAB strain MO91 = assay type: cell-based, Acinetobacter baumannii; settings: 24 h
Description: (§1) All AMPs and TP4 derivatives used in this study were synthesized by Kelowna International Scientific Inc. (Taipei City, Taiwan) with more than 95% purity, and their molecular weights were verified by mass spectrum analysis. MBC were determined by extending the MIC procedure in sterilized 96-well polypropylene microtiter plates according to the broth microdilution guidelines of the Clinical and Laboratory Standards Institute with some modification. Briefly, 5 × 10^5 CFU/mL of bacteria were inoculated in LB medium containing AMPs or antibiotic at final concentrations ranging from 512 to 1 μg/mL (from serial twofold dilutions). After incubation for 24 h at 37 °C, the lowest concentration showing no visible growth was used as the MIC value. In addition, 10 µL was drawn from each well with no visible turbidity onto LB agar plates and incubated for 24 h at 37 °C. The lowest concentration showing no visible growth on agar subculture was used as the MBC value. All experiments were performed in triplicate.

MDRAB strain BF50 = assay type: cell-based, Acinetobacter baumannii; settings: 24 h
Description: as §1

[7] = system: MDRAB clinical strain U80; assay type: cell-based, Acinetobacter baumannii
Description: as §2

[8] = system: Acinetobacter baumannii 19,606; assay type: cell-based
[9] = system: MDRAB clinical strain AN10; assay type: cell-based, Acinetobacter baumannii
[10] = system: MDRAB clinical strain AF93; assay type: cell-based, Acinetobacter baumannii
[11] = system: MDRAB clinical strain AE5; assay type: cell-based, Acinetobacter baumannii
[12] = system: MDRAB clinical strain W11; assay type: cell-based, Acinetobacter baumannii
Description: as §2

[13] = system: MDRAB clinical strain AK29; assay type: cell-based, Acinetobacter baumannii
Description: as §2

[14] = system: MDRAB clinical strain AF12; assay type: cell-based, Acinetobacter baumannii
[15] = system: MDRAB clinical strain AZ93; assay type: cell-based, Acinetobacter baumannii
Description: as §2

[16] = system: MDRAB clinical strain J49; assay type: cell-based, Acinetobacter baumannii
Description: as §2

[17] = system: MDRAB clinical strain L87; assay type: cell-based, Acinetobacter baumannii
Description: as §2

[18] = system: MDRAB clinical strain AE6; assay type: cell-based, Acinetobacter baumannii
[19] = system: MDRAB clinical strain O59; assay type: cell-based, Acinetobacter baumannii
Description: as §2

[20] = system: MDRAB clinical strain AK61; assay type: cell-based, Acinetobacter baumannii
[21] = system: MDRAB clinical strain D29; assay type: cell-based, Acinetobacter baumannii
Description: as §2

[22] = system: MDRAB clinical strain AS40; assay type: cell-based, Acinetobacter baumannii
MDRAB clinical strain K2 = assay type: cell-based, Acinetobacter baumannii
Description: as §2

[23] = system: MDRAB clinical strain AG51; assay type: cell-based, Acinetobacter baumannii
Description: as §2

MDRAB clinical strains = assay type: cell-based, Acinetobacter baumannii; settings: range over MDRAB clinical strains (details in Supplementary Table 2); subculture on LB agar, 24 h 37 °C
Description: as §2

[24] = 10 µL from wells without turbidity onto LB agar, 24 h at 37 °C, triplicate
[25] = strain U95, broth microdilution, LB, 24 h 37 °C
[26] = strain U95, subculture on LB agar, 24 h 37 °C
[27] = strain Y92, broth microdilution, LB, 24 h 37 °C
[28] = strain Y92, subculture on LB agar, 24 h 37 °C
[29] = strain AL87, broth microdilution, LB, 24 h 37 °C
[30] = strain AL87, subculture on LB agar, 24 h 37 °C
[31] = strain AF11, broth microdilution, LB, 24 h 37 °C
[32] = strain AF11, subculture on LB agar, 24 h 37 °C
[33] = strain AO80, broth microdilution, LB, 24 h 37 °C
[34] = strain AO80, subculture on LB agar, 24 h 37 °C
[35] = strain U80, broth microdilution, LB, 24 h 37 °C
[36] = strain U80, subculture on LB agar, 24 h 37 °C
[37] = strain AN10, broth microdilution, LB, 24 h 37 °C
[38] = strain AN10, subculture on LB agar, 24 h 37 °C
[39] = strain AF93, broth microdilution, LB, 24 h 37 °C
[40] = strain AF93, subculture on LB agar, 24 h 37 °C
[41] = strain AE5, broth microdilution, LB, 24 h 37 °C
[42] = strain AE5, subculture on LB agar, 24 h 37 °C
[43] = strain W11, broth microdilution, LB, 24 h 37 °C
[44] = strain W11, subculture on LB agar, 24 h 37 °C
[45] = strain AK29, broth microdilution, LB, 24 h 37 °C
[46] = strain AK29, subculture on LB agar, 24 h 37 °C
[47] = strain AF12, broth microdilution, LB, 24 h 37 °C
[48] = strain AF12, subculture on LB agar, 24 h 37 °C
[49] = strain AZ93, broth microdilution, LB, 24 h 37 °C
[50] = strain AZ93, subculture on LB agar, 24 h 37 °C
[51] = strain J49, broth microdilution, LB, 24 h 37 °C
[52] = strain J49, subculture on LB agar, 24 h 37 °C
[53] = strain L87, broth microdilution, LB, 24 h 37 °C
[54] = strain L87, subculture on LB agar, 24 h 37 °C
[55] = strain AE6, broth microdilution, LB, 24 h 37 °C
[56] = strain AE6, subculture on LB agar, 24 h 37 °C
[57] = strain O59, broth microdilution, LB, 24 h 37 °C
[58] = strain O59, subculture on LB agar, 24 h 37 °C
[59] = strain AK61, broth microdilution, LB, 24 h 37 °C
[60] = strain AK61, subculture on LB agar, 24 h 37 °C
[61] = strain D29, broth microdilution, LB, 24 h 37 °C
[62] = strain D29, subculture on LB agar, 24 h 37 °C
[63] = strain AS40, broth microdilution, LB, 24 h 37 °C
[64] = strain AS40, subculture on LB agar, 24 h 37 °C
[65] = strain K2, broth microdilution, LB, 24 h 37 °C
[66] = strain K2, subculture on LB agar, 24 h 37 °C
[67] = strain AG51, broth microdilution, LB, 24 h 37 °C
[68] = strain AG51, subculture on LB agar, 24 h 37 °C

## FIHHIIGGLFSAGKAIHRLIRRRRR [TP4]
[1]; 17,978, 24 h
  MBC: 16 µg/mL
  MIC: 16 µg/mL
[2]; 24 h
  MBC: 64 µg/mL
  MIC: 32 µg/mL
[3]; 24 h
  MBC: 16 µg/mL
  MIC: 16 µg/mL
[4]; 24 h
  MBC: 16 µg/mL
  MIC: 16 µg/mL
[5]; 24 h
  MBC: 16 µg/mL
  MIC: 16 µg/mL
[6]; 24 h
  MBC: 32 µg/mL
  MIC: 32 µg/mL
MDRAB strain MO91
  MBC: 32 µg/mL
  MIC: 16 µg/mL
MDRAB strain BF50
  MBC: 16 µg/mL
  MIC: 16 µg/mL
[7]; 24 h
  MBC: 32 µg/mL
  MIC: 32 µg/mL
[8]; 19,606, 24 h
  MBC: 16 µg/mL
  MIC: 16 µg/mL
[9]; 24 h
  MBC: 8 µg/mL
  MIC: 8 µg/mL
[10]; 24 h
  MBC: 16 µg/mL
  MIC: 16 µg/mL
[11]; 24 h
  MBC: 32 µg/mL
  MIC: 16 µg/mL
[12]; 24 h
  MBC: 16 µg/mL
  MIC: 16 µg/mL
[13]; 24 h
  MBC: 16 µg/mL
  MIC: 16 µg/mL
[14]; 24 h
  MBC: 16 µg/mL
  MIC: 16 µg/mL
[15]; 24 h
  MBC: 16 µg/mL
  MIC: 16 µg/mL
[16]; 24 h
  MBC: 16 µg/mL
  MIC: 16 µg/mL
[17]; 24 h
  MBC: 32 µg/mL
  MIC: 32 µg/mL
[18]; 24 h
  MBC: 16 µg/mL
  MIC: 16 µg/mL
[19]; 24 h
  MBC: 32 µg/mL
  MIC: 32 µg/mL
[20]; 24 h
  MBC: 32 µg/mL
  MIC: 32 µg/mL
[21]; 24 h
  MBC: 32 µg/mL
  MIC: 32 µg/mL
[22]; 24 h
  MBC: 32 µg/mL
  MIC: 32 µg/mL
MDRAB clinical strain K2; 24 h
  MBC: 32 µg/mL
  MIC: 16 µg/mL
[23]; 24 h
  MBC: 16 µg/mL
  MIC: 8 µg/mL

## GLGSVFGRLARILGRVIPKV-NH2 [Pilosulin]
[1]; [24]
  MBC: 32 µg/mL
[2]; [25]
  MIC: 32 µg/mL
[2]; [26]
  MBC: 32 µg/mL
[3]; [27]
  MIC: 8 µg/mL
[3]; [28]
  MBC: 8 µg/mL
[4]; [29]
  MIC: 8 µg/mL
[4]; [30]
  MBC: 8 µg/mL
[5]; [31]
  MIC: 8 µg/mL
[5]; [32]
  MBC: 16 µg/mL
[6]; [33]
  MIC: 16 µg/mL
[6]; [34]
  MBC: 32 µg/mL
[7]; [35]
  MIC: 16 µg/mL
[7]; [36]
  MBC: 16 µg/mL
[9]; [37]
  MIC: 8 µg/mL
[9]; [38]
  MBC: 8 µg/mL
[10]; [39]
  MIC: 8 µg/mL
[10]; [40]
  MBC: 8 µg/mL
[11]; [41]
  MIC: 8 µg/mL
[11]; [42]
  MBC: 16 µg/mL
[12]; [43]
  MIC: 16 µg/mL
[12]; [44]
  MBC: 16 µg/mL
[13]; [45]
  MIC: 16 µg/mL
[13]; [46]
  MBC: 16 µg/mL
[14]; [47]
  MIC: 8 µg/mL
[14]; [48]
  MBC: 16 µg/mL
[15]; [49]
  MIC: 16 µg/mL
[15]; [50]
  MBC: 16 µg/mL
MDRAB clinical strains
  MBC: 8 to 32 µg/mL
[16]; [51]
  MIC: 16 µg/mL
[16]; [52]
  MBC: 16 µg/mL
[17]; [53]
  MIC: 16 µg/mL
[17]; [54]
  MBC: 16 µg/mL
[18]; [55]
  MIC: 16 µg/mL
[18]; [56]
  MBC: 16 µg/mL
[19]; [57]
  MIC: 16 µg/mL
[19]; [58]
  MBC: 16 µg/mL
[20]; [59]
  MIC: 16 µg/mL
[20]; [60]
  MBC: 16 µg/mL
[21]; [61]
  MIC: 16 µg/mL
[21]; [62]
  MBC: 32 µg/mL
[22]; [63]
  MIC: 16 µg/mL
[22]; [64]
  MBC: 16 µg/mL
MDRAB clinical strain K2; [65]
  MIC: 16 µg/mL
MDRAB clinical strain K2; [66]
  MBC: 32 µg/mL
[23]; [67]
  MIC: 8 µg/mL
[23]; [68]
  MBC: 16 µg/mL

## GLFGKLIKKFGRKAISYAVKKARGKH [Latarcin 2a]
[1]; [24]
  MBC: 16 µg/mL
[1]; broth microdilution (CLSI, modified), LB medium, 5 × 10^5 CFU/mL, 24 h at 37 °C, lowest concentration with no visible growth, triplicate
  MIC: 16 µg/mL
[2]; [25]
  MIC: 16 µg/mL
[2]; [26]
  MBC: 16 µg/mL
[3]; [27]
  MIC: 8 µg/mL
[3]; [28]
  MBC: 8 µg/mL
[4]; [29]
  MIC: 4 µg/mL
[4]; [30]
  MBC: 4 µg/mL
[5]; [31]
  MIC: 8 µg/mL
[5]; [32]
  MBC: 8 µg/mL
[6]; [33]
  MIC: 8 µg/mL
[6]; [34]
  MBC: 8 µg/mL
[7]; [35]
  MIC: 16 µg/mL
[7]; [36]
  MBC: 16 µg/mL
[8]; [24]
  MBC: 16 µg/mL
[8]; broth microdilution (CLSI, modified), LB medium, 5 × 10^5 CFU/mL, 24 h at 37 °C, triplicate
  MIC: 16 µg/mL
[9]; [37]
  MIC: 4 µg/mL
[9]; [38]
  MBC: 4 µg/mL
[10]; [39]
  MIC: 8 µg/mL
[10]; [40]
  MBC: 8 µg/mL
[11]; [41]
  MIC: 8 µg/mL
[11]; [42]
  MBC: 8 µg/mL
[12]; [43]
  MIC: 8 µg/mL
[12]; [44]
  MBC: 8 µg/mL
[13]; [45]
  MIC: 8 µg/mL
[13]; [46]
  MBC: 8 µg/mL
[14]; [47]
  MIC: 8 µg/mL
[14]; [48]
  MBC: 8 µg/mL
[15]; [49]
  MIC: 8 µg/mL
[15]; [50]
  MBC: 8 µg/mL
[16]; [51]
  MIC: 64 µg/mL
[16]; [52]
  MBC: 64 µg/mL
[17]; [53]
  MIC: 16 µg/mL
[17]; [54]
  MBC: 16 µg/mL
[18]; [55]
  MIC: 8 µg/mL
[18]; [56]
  MBC: 8 µg/mL
[19]; [57]
  MIC: 16 µg/mL
[19]; [58]
  MBC: 16 µg/mL
[20]; [59]
  MIC: 8 µg/mL
[20]; [60]
  MBC: 8 µg/mL
[21]; [61]
  MIC: 8 µg/mL
[21]; [62]
  MBC: 16 µg/mL
[22]; [63]
  MIC: 8 µg/mL
[22]; [64]
  MBC: 8 µg/mL
MDRAB clinical strain K2; [65]
  MIC: 64 µg/mL
MDRAB clinical strain K2; [66]
  MBC: 64 µg/mL
[23]; [67]
  MIC: 4 µg/mL
[23]; [68]
  MBC: 4 µg/mL
